Results: PubChem BioAssay (NCI)
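48-hour exposure; five concentrations; linearly interpolated endpoints. Here, GI50 denotes the concentration required for 50% inhibition of growth. TGI: total growth inhibition.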

Tests used:
Assay in all cases: NCI tumour cell line growth inhibition, 48 h
HOP-92 NSCLC = tested on: HOP-92 NSCLC
786-0 renal = tested on: 786-0 renal
UO-31 renal = tested on: UO-31 renal
SF-539 CNS = tested on: SF-539 CNS
U251 CNS = tested on: U251 CNS
NCI-H23 lung = tested on: NCI-H23 lung
SNB-19 CNS = tested on: SNB-19 CNS
A498 renal = tested on: A498 renal
UACC-62 melanoma = tested on: UACC-62 melanoma
RXF 393 renal = tested on: RXF 393 renal

SMILES	GI50 (HOP-92 NSCLC) [µM]	TGI (HOP-92 NSCLC) [µM]	GI50 (786-0 renal) [µM]	TGI (786-0 renal) [µM]	GI50 (UO-31 renal) [µM]	TGI (UO-31 renal) [µM]	GI50 (SF-539 CNS) [µM]	TGI (SF-539 CNS) [µM]	GI50 (U251 CNS) [µM]	TGI (U251 CNS) [µM]	GI50 (NCI-H23 lung) [µM]	TGI (NCI-H23 lung) [µM]	GI50 (SNB-19 CNS) [µM]	TGI (SNB-19 CNS) [µM]	GI50 (A498 renal) [µM]	TGI (A498 renal) [µM]	GI50 (UACC-62 melanoma) [µM]	TGI (UACC-62 melanoma) [µM]	GI50 (RXF 393 renal) [µM]	TGI (RXF 393 renal) [µM]
COc1ccc2c(c1)[C@@]1(C)CCC3c4ccc(O)cc4CCC3C1C2 (some centres undefined)	17.2	33.9	15.3	29.2	12.8	30.9	20.3	38.9	15.6	29.9	16.8	30.8	16.2	30.7	18.2	33.3	17.6	32.9	10.5	34.5
COC(=O)C1=Cc2c(cc(OC)c(OC)c2OC)[C@H](c2ccc(OC)c(OC)c2OC)C1C(=O)OC (some centres undefined)		> 100		> 100		> 100		> 100		> 100		> 100		> 100		> 100		> 100		> 100
Cc1ccc(/C(=C/C=C(C#N)C#N)Sc2ccccn2)cc1	12.6	31.7	2.15	5.64	3.21		2.08	6.44	5.02	20.3	3.68	10.9	10.1	> 45.5	11.6	24	2.51	7.23	15.6	> 28.1
CC(C)=CC1CC(C)C2(CCC3(C)CC4C(C(=O)CC4(C)O)/C(C=O)=C\CC32)O1 (centres undefined)		0.2		0.0438		0.0989		0.239		0.197		0.264		0.607		0.979		0.368		0.098
O=[N+]([O-])/C=C/c1ccc([N+](=O)[O-])cc1	13	28.9	2.02	3.64	1.83	3.69	2.46	4.89	1.78	3.52	2.07	5.2	3.53	14.9	2.98	10.1	2.09	6.15	1.52	2.98
CNC(=O)OCc1[nH]ccc2c(C)c3nc4ccc(OC)cc4c3cc12		> 100		20.5		> 53.9		> 31.8		> 59.5		> 22.2		> 25.1		30.7		> 56.7		8.72
COc1ccc(-c2ccccc2)cc1-c1c(Nc2cc(Cl)cc(Cl)c2O)c(=O)c1=O	0.929	2.81	1.84	> 50	1.25	> 50	1.59	> 50	1.63	> 50	1.38	> 50	1.84	> 50	0.726	2.2	1.29	> 50	1.48	> 50
COc1cc(/C=C2\C(=O)Nc3ccccc32)cc(OC)c1OC	20.8	71.7	23.2	> 100	30.4	> 100	27.9	> 100	10.9	63.5	17.9	68.3	27.1	> 100	27.4	> 100	14.4	> 100	2.37	10.6
